Test results taken from article PMC7191384, “Multimodal α-Glucosidase and α-Amylase Inhibition and Antioxidant Effect of the Aqueous and Methanol Extracts from the Trunk Bark of Ceiba pentandra” (BioMed Research International, 2020).
Values belong to the compound of their own block, whether it stands above or below them.

Tests used:
[1] = Superoxide anion scavenging test (PMS-NADH/NBT)
Method: Superoxide anions were generated in a phenazine methosulfate- (PMS-) NADH system. The reaction mixture was made of 0.5 ml test solution, 0.95 ml 0.1 M phosphate buffer (pH 7.4), 0.5 ml […] in phosphate buffer (pH 7.4). Extracts were used at concentrations of 1, 3, 10, 30, 100, and 300 μg/ml. Gallic acid was tested at the same concentrations and used as a reference drug. Reduction of nitroblue tetrazolium was monitored at 560 nm on a Helios Epsilon Spectrophotometer (Thermo Fisher Scientific). The test was carried out in triplicate. The percent inhibition was calculated as follows: […]

[2] = test system: BSA oxidation induced by AAPH; test: AAPH-induced protein oxidation assay (BSA thiol groups); set-up: species or system bovine
Method: (§1) The effect of plant extracts against protein oxidation was evaluated according to the method of Simplicio et al. with some modifications. Zero point five milliliter aliquots of BSA (30 mg/ml) prepared in phosphate buffer saline (50 mM, pH 7.4) were incubated with 0.5 ml of extracts or gallic acid. Fifteen minutes later, 0.5 ml of H2O2 (20 mM) or AAPH (2′,2′-azobis (2-methylpropionamidine) dihydrochloride) solution (50 mM) in another set of experiment, was added to the reaction medium and incubated at 37°C for 30 minutes and 1 hour, respectively. Proteins were precipitated with ammonium sulfate (70%) followed by vigorous shaking and centrifugation at 3000 rpm. The pellet obtained was resuspended in 1.5 ml of PBS, and 0.2 ml of Ellman's reagent was introduced. The level of thiol groups was measured 10 minutes later at 412 nm.

[3] = test system: BSA oxidation induced by H2O2; test: H2O2-induced protein oxidation assay (BSA thiol groups); set-up: species or system bovine
Method: as §1

α-glucosidase = target: T1, α-glucosidase (Saccharomyces cerevisiae, UniProt P53341); test: α-Glucosidase inhibitory test (pNPG); format: biochemical; settings: according to the efficacy index
T1 construct: purchased Sigma-Aldrich Chemical Co. (Taufkirchen, Germany)
T1 sequence (P53341 whole entry): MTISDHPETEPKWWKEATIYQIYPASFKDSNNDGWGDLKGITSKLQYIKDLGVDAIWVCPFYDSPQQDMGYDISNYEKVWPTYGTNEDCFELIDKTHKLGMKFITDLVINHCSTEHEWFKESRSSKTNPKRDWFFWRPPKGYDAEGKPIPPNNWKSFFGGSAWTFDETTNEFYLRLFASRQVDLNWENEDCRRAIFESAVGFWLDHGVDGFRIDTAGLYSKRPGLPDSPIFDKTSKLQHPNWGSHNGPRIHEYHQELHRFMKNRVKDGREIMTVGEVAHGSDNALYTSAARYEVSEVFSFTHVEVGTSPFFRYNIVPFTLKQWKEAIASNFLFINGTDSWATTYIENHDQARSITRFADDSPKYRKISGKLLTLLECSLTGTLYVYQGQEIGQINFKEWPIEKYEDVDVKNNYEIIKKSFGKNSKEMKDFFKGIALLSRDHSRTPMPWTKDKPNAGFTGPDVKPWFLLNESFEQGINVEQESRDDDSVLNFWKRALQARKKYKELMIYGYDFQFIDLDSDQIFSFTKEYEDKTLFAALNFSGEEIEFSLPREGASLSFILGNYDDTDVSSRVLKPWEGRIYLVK
Method: The ability of C. pentandra extracts to inhibit the activity of α-glucosidase was assessed according to Kim et al.'s protocol. Shortly, α-glucosidase (1 U/ml) from Saccharomyces cerevisiae was preincubated with 250 μl extracts for 10 minutes. P-nitrophenyl glucopyranoside substrate solution (pNPG, 3 mM) prepared in 20 mM phosphate buffer (pH 6.9) containing 2 mg/ml BSA was added to start the reaction. The reaction mixture was incubated at 37°C for 20 minutes and stopped with 1 ml of Na2CO3 (1 M). α-Glucosidase activity was determined by measuring paranitrophenol released from pNPG at 405 nm. The percent inhibition was calculated as follows: (3) %inhibition=OD control−OD sample/OD control×100.

[4] = Hydrogen peroxide scavenging activity
Method: A method previously described by Ruch et al. was used to assess the ability of plant extracts to decompose hydrogen peroxide (H2O2). Briefly, a 40 mM solution of H2O2 prepared in phosphate buffer (pH 7.4) was mixed with graded concentrations (1-300 μg/ml) of extracts or ascorbic acid. After 10 min of incubation, optical densities were read at 230 nm against a blank solution made up of phosphate buffer without H2O2. The percentage of H2O2 scavenging activity was calculated as in the previous test.

- Superoxide anion EI (efficiency index, maximal activity/IC50) [1]: 1.43
- Superoxide anion IC50 ([1]; concentrations 1-300 μg/ml): 55.66 µg/mL
- AAPH protein oxidation IC50 ([2]; BSA, AAPH 50 mM, 37°C, 1 hour): 90.17 µg/mL
- H2O2 protein oxidation IC50 ([3]; BSA, H2O2 20 mM, 37°C, 30 minutes): 29.9 µg/mL
Compound: O=C(O)c1cc(O)c(O)c(O)c1 [Gallic acid, gallic acid]
- AAPH protein oxidation EI (efficiency index) [2]: 0.64
- H2O2 protein oxidation EI (efficiency index) [3]: 1.74

Compound: C[C@H]1O[C@H](O[C@H]2[C@H](O)[C@@H](O)[C@@H](O[C@H]3[C@H](O)[C@@H](O)C(O)O[C@@H]3CO)O[C@@H]2CO)[C@H](O)[C@@H](O)[C@@H]1N[C@H]1C=C(CO)[C@@H](O)[C@H](O)[C@H]1O (stereo partly shown) [Acarbose, acarbose]
- α-Glucosidase: inhibitory effect, times greater than that of the methanol extract (α-glucosidase): 10 times
- α-Glucosidase: inhibitory effect, times the magnitude of the aqueous extract (α-glucosidase): more than 15 times

- Hydrogen peroxide IC50 ([4]; 1-300 μg/ml, 10 min incubation): 13.84 µg/mL
Compound: O=C1O[C@H]([C@@H](O)CO)C(O)=C1O [Ascorbic acid, ascorbic acid]
- Hydrogen peroxide EI (efficiency index) [4]: 4.77
